The text below walks through data of patent US9533986B2, “Bicyclic dihydropyridone kinase inhibitors” (PORTOLA PHARMACEUTICALS, INC., priority 2012, dated 2017).

Molecules are shown by their SMILES.

For this assay, the target named is T1, full length active recombinant SYK enzyme (Homo sapiens, UniProt P43405).
T1 construct: full length active recombinant SYK enzyme (Millipore, Calif.); purchased Millipore
The experiment in a line: Inhibition of Syk tyrosine phosphorylation activity (LANCE TR-FRET kinase assay). Format: biochemical. Conditions: 1 nM active SYK enzyme, 550 nM SYK-substrate, 100 μM ATP, 1 hour at room temperature. The protocol:
The in vitro and in vivo human JAK/Syk activities of the inventive compounds can be determined by various procedures known in the art, such as a test for their ability to inhibit the activity of human plasma JAK/Syk. […] The IC50 value is the concentration of the compound required to provide 50% inhibition of human JAK/Syk proteolytic activity.
An in vitro assay for detecting and measuring inhibition activity against Syk is as follows.
SYK tyrosine phosphorylation activity is measured using the LANCE™ Technology developed by Perkin Elmer Life and Analytical Sciences (Boston, Mass.). LANCE™ refers to homogeneous time resolved fluorometry applications using techniques such as time-resolved fluorescence resonance energy transfer assay (TR-FRET) (see generally for procedures in Perkin Elmer Application Note—How to Optimize a Tyrosine Kinase Assay Using Time Resolved Fluorescence-Based LANCE Detection, wwww.perkinelmer.com/lifesciences). The assay principle involves detection of a phosphorylated substrate using energy transfer from a phosphospecific europium-labeled antibody to streptavidin-allophycocyanin as an acceptor.
Molecules are reconstituted in 30% DMSO and serially diluted 1:3 with the final dilution containing DMSO in the absence of the candidate molecule. The final DMSO concentration in the assay is 3%. Kinase assays are performed as a two part reaction. The first reaction is a kinase reaction which comprises a candidate molecule, full length active recombinant SYK enzyme (Millipore, Calif.), and biotin-DEEDYESP-OH, a biotin-labeled SYK-specific substrate. The second reaction involves termination of the kinase reaction and the simultaneous addition of the detection reagents—europium-labeled anti-phosphotyrosine reagent (Eu-W1024-PY100, Perkin Elmer, Boston, Mass.) and Streptavidin-Allophycocyanin detection reagent (SA-APC, Prozyme, CA). The kinase reaction is performed in a black U-bottom 96-well microtitre plate. The final reaction volume is 50 μL and contains a final concentration of 1 nM active SYK enzyme, 550 nM SYK-substrate, and 100 μM ATP diluted in a buffer containing 50 mM Tris pH 7.5, 5 mM MgCl2, and 1 mM DTT. The reaction is allowed to proceed for 1 hour at room temperature. The quench buffer contains 100 mM Tris pH 7.5, 300 mM NaCl2, 20 mM EDTA, 0.02% Brij35, and 0.5% BSA. […] Detection of the phosphorylated substrate in the absence and presence of inhibitors is measured in the TR-FRET instrument, Analyst HT (Molecular Probes, Sunnyvale, Calif.) and the condition for measurements are set using CriterionHost Release 2.0 (Molecular Probes, Sunnyvale, Calif.). […] Inhibition of SYK-tyrosine kinase activity is calculated as the maximum response observed in the presence of inhibitor, compared to that in the absence of inhibitor. […]
In general terms: Time-resolved FRET reads energy transfer from a long-lived donor to a nearby acceptor.

In the case of `Cc1cccc(Nc2nc(N[C@@H]3CCCC[C@@H]3N)nc3c2C(=O)NCC3)c1` [Example 1, 2-(((1R,2S)-2-aminocyclohexyl)amino)-4-(m-tolylamino)-7,8-dihydropyrido[4,3-d]pyrimidin-5(6H)-one], the IC50 is no more than 100 nM.

Take `N[C@H]1CCCC[C@H]1Nc1nc2c(c(Nc3cccc(-c4ncccn4)c3)n1)C(=O)NCC2` [Example 4, 2-(((1R,2S)-2-aminocyclohexyl)amino)-4-((3-(pyrimidin-2-yl)phenyl)amino)-7,8-dihydropyrido[4,3-d]pyrimidin-5(6H)-one]: the IC50 is no more than 250 nM.

As for `N[C@H]1CCCC[C@H]1Nc1nc2c(c(Nc3cccc(-n4nccn4)c3)n1)C(=O)NCC2` [Example 6, 4-((3-(2H-1,2,3-triazol-2-yl)phenyl)amino)-2-(((1R,2S)-2-aminocyclohexyl)amino)-7,8-dihydropyrido[4,3-d]pyrimidin-5(6H)-one], the IC50 is no more than 100 nM.

Consider `COc1ccc(Nc2nc(N[C@@H]3CCCC[C@@H]3N)nc3c2C(=O)NCC3)cc1C(F)(F)F` [Example 7, 2-(((1R,2S)-2-aminocyclohexyl)amino)-4-((4-methoxy-3-(trifluoromethyl)phenyl)amino)-7,8-dihydropyrido[4,3-d]pyrimidin-5(6H)-one], for which the IC50 is greater than 250 nM.

Usually IC50 stands for the point on the concentration scale where inhibition reaches its midpoint.
